Test results published in ChEMBL document CHEMBL1201862, “PubChem BioAssay data set” (2004).
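How tested: cells in 96-well plates exposed to compound for 48 hours at five concentrations. GI50 marks 50% less growth.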 Activity calls are given as the source filed them. Cut-off read from the data, not from the text of the source: active = GI50 up to about 1.1 µM and inactive = higher. Non-standard residues stand in square brackets, D forms with d. Residues, ends and D or L forms follow the SMILES beside them.

Experiments:
Experiment in all cases: NCI-60 cell line screen, 48 h
[1] = system: A498
[2] = system: HT-29
[3] = system: ACHN
[4] = system: IGROV-1
[5] = system: SNB-75
[6] = system: 786-0
[7] = system: UACC-62
[8] = system: Malme-3M
[9] = system: EKVX
[10] = system: SK-MEL-5
[11] = system: NCI-H226
[12] = system: HCC 2998
[13] = system: HCT-116
[14] = system: UACC-257
[15] = system: HCT-15
[16] = system: HOP-92
[17] = system: SNB-78
[18] = system: HL-60
[19] = system: KM-20L2
[20] = system: MOLT-4
[21] = system: HOP-62
[22] = system: U-251
[23] = system: SF-268
[24] = system: CCRF-CEM
[25] = system: A549
[26] = system: SW-620
[27] = system: HOP-18
[28] = system: LXFL 529
[29] = system: K562
[30] = system: DLD-1
[31] = system: SR
[32] = system: M14
[33] = system: NCI-H522
[34] = system: COLO 205
[35] = system: SF-295
[36] = system: SK-MEL-28
[37] = system: DMS-114
[38] = system: NCI-H23
[39] = system: RPMI-8226
[40] = system: RXF 393
[41] = system: SNB-19
[42] = system: SN12C
[43] = system: OVCAR-8
[44] = system: M19-MEL
[45] = system: SF-539
[46] = system: UO-31
[47] = system: DMS-273
[48] = system: OVCAR-4
[49] = system: SK-OV-3
[50] = system: XF498
[51] = system: LOX IMVI
[52] = system: MCF7
[53] = system: NCI/ADR-RES
[54] = system: OVCAR-3
[55] = system: KM12
[56] = system: NCI-H460
[57] = system: OVCAR-5
[58] = system: SK-MEL-2

Structure (SMILES): CCCCCCCC(=O)OCC(C[As](=O)(O)O)OC(=O)CCCCCCC (stereo unspecified)
- GI50 [1]: 19.1 µM (inactive)
- GI50 [2]: 17.1 µM (inactive)
- GI50 [3]: 16.9 µM (inactive)
- GI50 [4]: 13.8 µM (inactive)
- GI50 [5]: 15.7 µM (inactive)
- GI50 [6]: 17.2 µM (inactive)
- GI50 [7]: 13.8 µM (inactive)
- GI50 [8]: 15.1 µM (inactive)
- GI50 [9]: 18.3 µM (inactive)
- GI50 [10]: 18.1 µM (inactive)
- GI50 [11]: 22.3 µM (inactive)
- GI50 [12]: 17.7 µM (inactive)
- GI50 [13]: 16.7 µM (inactive)
- GI50 [14]: 14.8 µM (inactive)
- GI50 [15]: 14.9 µM
- GI50 [16]: 12.7 µM (inactive)
- GI50 [17]: 18.7 µM (inactive)
- GI50 [18]: 5.56 µM (inactive)
- GI50 [19]: 16.7 µM (inactive)
- GI50 [20]: 16.6 µM (inactive)
- GI50 [21]: 20.3 µM (inactive)
- GI50 [22]: 15 µM (inactive)
- GI50 [23]: 14.9 µM (inactive)
- GI50 [24]: 6.49 µM (inactive)
- GI50 [25]: 23 µM (inactive)
- GI50 [26]: 15.6 µM (inactive)
- GI50 [27]: 15.8 µM (inactive)
- GI50 [28]: 13.4 µM (inactive)
- GI50 [29]: 20.6 µM (inactive)
- GI50 [30]: 16.9 µM (inactive)
- GI50 [31]: 16.6 µM (inactive)
- GI50 [32]: 15 µM (inactive)
- GI50 [33]: 13.3 µM (inactive)
- GI50 [34]: 14.3 µM (inactive)
- GI50 [35]: 16.6 µM (inactive)
- GI50 [36]: 15.7 µM (inactive)
- GI50 [37]: 16.4 µM (inactive)
- GI50 [38]: 15.2 µM (inactive)
- GI50 [39]: 17.6 µM (inactive)
- GI50 [40]: 5.01 µM (inactive)
- GI50 [41]: 14.8 µM (inactive)
- GI50 [42]: 14.7 µM (inactive)
- GI50 [43]: 15.8 µM (inactive)
- GI50 [44]: 15.7 µM (inactive)
- GI50 [45]: 14.1 µM (inactive)
- GI50 [46]: 15 µM (inactive)
- GI50 [47]: 14.1 µM (inactive)
- GI50 [48]: 19.7 µM (inactive)
- GI50 [49]: 15.7 µM (inactive)

Structure (SMILES): CC(C)C[C@H](NC(=O)[C@H](CC(C)C)NC(=O)[C@@H](Cc1c[nH]c2ccccc12)NC(=O)[C@H](Cc1ccccc1)NC(=O)[C@@H](Cc1c[nH]c2ccccc12)NC(=O)[C@H](CCC(N)=O)NC(=O)[C@H](CCC(N)=O)NC(=O)[C@H]1CCCN1C(=O)[C@@H](N)CCCCN)C(N)=O (H-K[dP]QQ[dW]F[dW]LL-NH2)
- GI50 [1]: > 100 µM (inactive)
- GI50 [2]: > 100 µM (inactive)
- GI50 [50]: > 100 µM (inactive)
- GI50 [51]: > 100 µM (inactive)
- GI50 [4]: > 100 µM (inactive)
- GI50 [5]: > 100 µM (inactive)
- GI50 [7]: > 100 µM (inactive)
- GI50 [8]: > 100 µM (inactive)
- GI50 [9]: > 100 µM (inactive)
- GI50 [10]: > 100 µM (inactive)
- GI50 [11]: > 100 µM (inactive)
- GI50 [12]: > 100 µM (inactive)
- GI50 [13]: > 100 µM (inactive)
- GI50 [14]: > 100 µM (inactive)
- GI50 [15]: > 100 µM
- GI50 [16]: > 100 µM (inactive)
- GI50 [17]: > 100 µM (inactive)
- GI50 [18]: > 100 µM (inactive)
- GI50 [52]: > 100 µM (inactive)
- GI50 [19]: > 100 µM (inactive)
- GI50 [20]: > 100 µM (inactive)
- GI50 [21]: > 100 µM (inactive)
- GI50 [22]: > 100 µM (inactive)
- GI50 [23]: > 100 µM (inactive)
- GI50 [53]: > 100 µM (inactive)
- GI50 [24]: > 100 µM (inactive)
- GI50 [25]: > 100 µM (inactive)
- GI50 [26]: > 100 µM (inactive)
- GI50 [27]: > 100 µM (inactive)
- GI50 [29]: > 100 µM (inactive)
- GI50 [54]: > 100 µM (inactive)
- GI50 [30]: > 100 µM (inactive)
- GI50 [33]: > 100 µM (inactive)
- GI50 [34]: > 100 µM (inactive)
- GI50 [55]: > 100 µM (inactive)
- GI50 [35]: > 100 µM (inactive)
- GI50 [36]: > 100 µM (inactive)
- GI50 [38]: > 100 µM (inactive)
- GI50 [39]: > 100 µM (inactive)
- GI50 [40]: > 100 µM (inactive)
- GI50 [41]: > 100 µM (inactive)
- GI50 [42]: > 100 µM (inactive)
- GI50 [43]: > 100 µM (inactive)
- GI50 [44]: > 100 µM (inactive)
- GI50 [56]: > 100 µM (inactive)
- GI50 [45]: > 100 µM (inactive)
- GI50 [46]: > 100 µM (inactive)
- GI50 [57]: > 100 µM (inactive)
- GI50 [47]: > 100 µM (inactive)
- GI50 [58]: > 100 µM (inactive)
- GI50 [48]: > 100 µM (inactive)
- GI50 [49]: > 100 µM (inactive)
